Experimental data from ChEMBL document CHEMBL5727469, “Inhibitors of the renal outer medullary potassium channel” (2019).

Each compound was assayed against T1, ATP-sensitive inward rectifier potassium channel 1 (Homo sapiens, UniProt P48048) (assay: Thallium Flux Assay: 1. Seed HEK-hKir1.1 cells (50 μl at 20,000 cells/well) in 384-well PDL coated Microplates2. Allow cells to adhere overnight in humidified 37° C./10% CO2 incubator3. Completely remove cell growth media from microplate and replace with 25 μl loading buffer4. Incubate Microplate at room temperature, protected form light, for 90 min5. Remove loading buffer and replace with 25 μl 1× Assay Buffer±test compound.6. Incubate microplate at room temperature, protected from light, for 30 min7. At FLIPR-Tetra 384: Add stimulant (Thallium/Potassium) solution to microplate and monitor fluorescence. Excitation=400 nm, Emission=460 & 580 nm. Collect data for ˜10 min.Data Calculation—The fluorescence intensity of wells containing 3 μM of a standard control ROMK inhibitor of the present invention is used to define the ROMK-sensitive component of thallium flux. Fluorescence in the presence of test compounds is normalized to control values to provide % fluorescence change. IC50 values represent the concentration of compound that inhibits 50% of the ROMK thallium flux signal.).
T1 sequence (P48048 whole entry): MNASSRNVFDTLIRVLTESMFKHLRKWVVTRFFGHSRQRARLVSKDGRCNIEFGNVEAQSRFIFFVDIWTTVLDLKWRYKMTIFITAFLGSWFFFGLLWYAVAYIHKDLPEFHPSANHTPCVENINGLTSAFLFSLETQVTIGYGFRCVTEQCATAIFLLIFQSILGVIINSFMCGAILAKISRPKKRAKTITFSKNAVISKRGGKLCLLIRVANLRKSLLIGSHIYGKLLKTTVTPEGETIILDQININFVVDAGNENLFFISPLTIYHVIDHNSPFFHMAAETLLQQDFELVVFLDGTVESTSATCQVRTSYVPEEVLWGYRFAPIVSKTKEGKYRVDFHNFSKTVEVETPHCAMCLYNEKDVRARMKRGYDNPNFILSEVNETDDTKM
`CC1=C(N2CCOC3(CCN(CC(O)c4ccc(-n5cnnn5)nc4C)CC3)C2)CCC1=O` (stereo not given) gave an IC50 of 0.157 µM. `CC1=C(N2CCOC3(CCN(C[C@H](O)c4ccc5c(c4C)COC5=O)CC3)C2)CCC1=O` was tested, and the IC50 was 0.796 µM. In the case of `CC1=C(N2CCOC3(CCN(C[C@H](O)c4ccc(-n5cnnn5)nc4)CC3)C2)CCC1=O`, the IC50 is reported as 0.167 µM. Work on `CC1=C(N2CCOC3(CCN(CC(O)c4ccc(-n5cnnn5)cc4C)CC3)C2)CCC1=O` (stereo not given) yielded an IC50 of 0.285 µM. With `CC1=C(N2CCC3(CCN(CC(O)c4ccc(-n5cnnn5)nc4C)CC3)C2=O)CCC1=O` (single isomer, unassigned) the IC50 was 0.842 µM.
